Data published in US10323001B2, “Compositions for modulating a kinase cascade and methods of use thereof” (Athenex, Inc., priority 2006, dated 2019).
Counter-ions that a name gives are not always drawn. Like-named read-outs stand apart in the source and are kept apart here.

Experiments:
[1] = Slurry studies, 2 weeks at ambient conditions; assay type: physicochemical; settings: for Form After 2 Weeks (XRPD): initial Form A
Description: After 2 weeks slurry at ambient conditions, the solids were isolated and analyzed by XRPD and HPLC. No additional forms were observed by XRPD.

[2] = Slurry study (acetone, DI water); assay type: physicochemical; settings: Acetone slurry/RT, one and five days
Method: Slurry experiments were performed using acetone and DI water on KX2-391.MSA, Form A. Each vial was filled with approximately 30 mg of KX2-391.MSA, Form A and 0.5 and 1 mL of corresponding solvent, followed by stirring at room temperature for one and five days. The obtained solids were isolated by filtration, dried under vacuum at room temperature, and analyzed by HPLC and XRPD. The initial purity of KX2-391.MSA was 99.4%.

[3] = Aqueous solubility study in buffers at 37° C.; assay type: physicochemical; settings: overnight at 37° C.; for solubility: thermodynamic from solid
Method: The solubility of KX2-391 mesylate, Form A was determined in SGF (pH 2), acetate buffer (pH 4.5), and phosphate buffer (pH 7.2). Slurries of KX2-391 mesylate in the buffer solution were allowed to equilibrate overnight at 37° C. The solids were then isolated and the supernatant was diluted and analyzed by HPLC. The response of the supernatant was then compared against a calibration curve to determine the solubility.

[4] = Pressure and grinding studies; assay type: physicochemical
[5] = Solubility in DI water and pH 2.0 phosphate buffer; assay type: physicochemical
Method: The table below summarizes additional characterization data for the fumaric and maleate KX2-391.MSA salts and compares it to free base, bis-HCl, and MSA salts described above. The results in the table below were obtained using the procedures described above in Examples 5 (XRPD), 6 (DSC), 7 (TGA), and 8 (moisture-sorption).
Solubility experiments were also performed using pH 2.0 phosphate buffer and DI water pH 6.9 and KX2-391.MSA, Form A. Each vial was filled with approximately 50 mg of KX2-391.MSA, Form A and 100 μL aliquots of the corresponding solvent was added until complete dissolution was observed, followed by stirring at room temperature for one and five days. The solids obtained were isolated by filtration, dried under vacuum at room temperature and analyzed by HPLC. The initial HPLC purity of KX2-391.MSA, Form A was 99.4 (% area). The solubility by HPLC of KX2-391.MSA, Form A in phosphate buffer/RT was >500 mg/mL and HPLC purity was measured to be 99.4. The solubility by HPLC of KX2-391.MSA, Form A in DI H2O/RT was >500 mg/mL and HPLC purity was measured to be 99.4.

[6] = Humidity chamber hygroscopicity study (salt solution chambers, visual inspection); assay type: physicochemical; set-up: key to Observations/Time (hr): FF—Free flowing powder; D—Complete deliquescence of sample observed; CC—Colour change of sample observed; settings: for XRPD after humidity chamber (compared with XRPD pattern of sponsor lot) / HPLC Assay (% Area Purity) after humidity chamber: up to 120 hr; for HPLC Assay (% Area Purity) after humidity chamber: initial 99.4
Method: Further characterization of the hygroscopicity of the mesylate salt was performed using several humidity chambers to cover a range of humidity from 75, 88 to 95% RH. The 75, 88, and 95% RH chambers were prepared with NaCl, BaCl2.2H2O, and Na2HPO4.12 H2O respectively and were equilibrated for 48 hours prior to introducing the samples. Samples were placed into aluminum pans and monitored by visual inspection for up to five days. Table 3 summarizes the observations at 0, 3, 5, 24, 48, 72, 96 and 120 hour time points.
Moisture sorption studies conducted at ambient temperature utilizing salt solution humidity chambers were conducted to evaluate solid stability by visual inspection.

[7] = Threshold solubility of salt screen 96 well plate; settings: salt screen well: 1 Equivalent of Acid, DI water
Method: Following each addition, the plate was shaken to encourage mixing for at least 5 minutes prior to evaluation.

Thermal stress = assay type: physicochemical; settings: 60° C., one week
Method: Thermal stress experiments were performed on KX2-391.MSA, Form A. Each 1-dram amber vial was filled with approximately 20 mg of KX2-391.MSA, Form A capped and stored in a vacuum over at 60° C. for one week. The resulting solids were analyzed by XRPD and HPLC.

[8] = slurry in Dioxane:water (~0.9:0.1)

O=C(Cc1ccc(-c2ccc(OCCN3CCOCC3)cc2)cn1)NCc1ccccc1 [KX2-391.MSA, 2-(5-(4-(2-morpholinoethoxy)phenyl)pyridine-2-yl)-N-benzylacetamide mesylate]
HPLC Purity (AUC) after 2 weeks slurry ([1]; slurry in 1-butanol): >99% | Form After 2 Weeks (XRPD) ([1]; slurry in 1-butanol): Form A | HPLC Purity (AUC) after 2 weeks slurry [1, 8]: >99% | Form After 2 Weeks (XRPD) [1, 8]: Form A | HPLC Purity (AUC) after 2 weeks slurry ([1]; slurry in IPA): >99% | Form After 2 Weeks (XRPD) ([1]; slurry in IPA): Form A | HPLC Purity (AUC) after 2 weeks slurry ([1]; slurry in MeCN): >99% | Form After 2 Weeks (XRPD) ([1]; slurry in MeCN): Form A | HPLC Purity (AUC) after 2 weeks slurry ([1]; slurry in THF:water (~0.9:0.1)): >99% | Form After 2 Weeks (XRPD) ([1]; slurry in THF:water (~0.9:0.1)): Form A | XRPD of solid after slurry [2]: consistent with the pattern of the initial KX2-391.MSA, Form A | HPLC purity after slurry ([2]; initial 99.4%): 99.3% | pH after slurry ([3]; SGF (pH 2.0)): 4.5 | pH after slurry ([3]; acetate (pH 4.5)): 4.4 | solubility ([3]; acetate buffer, aqueous buffer, acetate (pH 4.5)): 737 mg/mL | pH after slurry ([3]; phosphate (pH 7.2)): 4.3 | solubility ([3]; phosphate buffer, aqueous buffer, phosphate (pH 7.2)): 150 mg/mL | solubility ([3]; simulated gastric fluid, SGF (pH 2.0)): 700 mg/mL | effect of physical stress on the crystalline form [4]: No change in crystalline form was observed | pH of solubility sample [5]: 4.6 | HPLC purity after solubility experiment ([5]; pH 2): 99.4 % area | Solubility mg/mL ([5]; pH 2): pH 2: >500 mg/mL | pH of solubility sample ([5]; pH 2): (4.3) | solubility ([5]; pH 2, aqueous buffer, thermodynamic from solid): > 500 mg/mL | HPLC purity after solubility experiment ([5]; pH 6.9): 99.4 % area | solubility ([5]; pH 6.9): > 500 mg/mL | solubility ([5]; pH 6.9, water, thermodynamic from solid): > 500 mg/mL | Observations/Time (hr) ([6]; 75% RH (NaCl) chamber, 0 hr): FF | Observations/Time (hr) ([6]; 75% RH (NaCl) chamber, 3 hr): FF | Observations/Time (hr) ([6]; 75% RH (NaCl) chamber, 5 hr): FF | Observations/Time (hr) ([6]; 75% RH (NaCl) chamber, 24 hr): FF | Observations/Time (hr) ([6]; 75% RH (NaCl) chamber, 48 hr): FF | Observations/Time (hr) ([6]; 75% RH (NaCl) chamber, 72 hr): FF | Observations/Time (hr) ([6]; 75% RH (NaCl) chamber, 96 hr): FF | Observations/Time (hr) ([6]; 75% RH (NaCl) chamber, 120 hr): FF | XRPD after humidity chamber (compared with XRPD pattern of sponsor lot) ([6]; 75% RH (NaCl) chamber): Consistent | HPLC Assay (% Area Purity) after humidity chamber ([6]; 75% RH (NaCl) chamber): 99.4 % Area Purity | stability in humidity chamber (deliquescence, decomposition by HPLC) ([6]; 75% RH, up to five days): stable | Observations/Time (hr) ([6]; 88% RH (BaCl2•2H2O) chamber, 0 hr): FF | Observations/Time (hr) ([6]; 88% RH (BaCl2•2H2O) chamber, 3 hr): CC | Observations/Time (hr) ([6]; 88% RH (BaCl2•2H2O) chamber, 5 hr): CC | Observations/Time (hr) ([6]; 88% RH (BaCl2•2H2O) chamber, 24 hr): CC | Observations/Time (hr) ([6]; 88% RH (BaCl2•2H2O) chamber, 48 hr): CC | Observations/Time (hr) ([6]; 88% RH (BaCl2•2H2O) chamber, 72 hr): CC | Observations/Time (hr) ([6]; 88% RH (BaCl2•2H2O) chamber, 96 hr): CC | Observations/Time (hr) ([6]; 88% RH (BaCl2•2H2O) chamber, 120 hr): CC | XRPD after humidity chamber (compared with XRPD pattern of sponsor lot) ([6]; 88% RH (BaCl2•2H2O) chamber): Consistent | HPLC Assay (% Area Purity) after humidity chamber ([6]; 88% RH (BaCl2•2H2O) chamber): 89.3 % Area Purity | colour of material after exposure ([6]; 88% RH, up to five days): darker color yellow | degradation by HPLC ([6]; 88% RH, up to five days): roughly 10 % area | deliquescence on exposure to high humidity ([6]; 95% RH): deliquesce within three hours | Observations/Time (hr) ([6]; 95% RH (Na2HPO4•12H2O) chamber, 0 hr): FF | Observations/Time (hr) ([6]; 95% RH (Na2HPO4•12H2O) chamber, 3 hr): D | Observations/Time (hr) ([6]; 95% RH (Na2HPO4•12H2O) chamber, 5 hr): D | Observations/Time (hr) ([6]; 95% RH (Na2HPO4•12H2O) chamber, 24 hr): D | Observations/Time (hr) ([6]; 95% RH (Na2HPO4•12H2O) chamber, 48 hr): D | Observations/Time (hr) ([6]; 95% RH (Na2HPO4•12H2O) chamber, 72 hr): D | Observations/Time (hr) ([6]; 95% RH (Na2HPO4•12H2O) chamber, 96 hr): D | Observations/Time (hr) ([6]; 95% RH (Na2HPO4•12H2O) chamber, 120 hr): D | Threshold solubility rank ([7]; Acetone): 1 | Threshold solubility rank ([7]; Dioxane): 1 | Threshold solubility rank ([7]; THF): 1 | HPLC purity after thermal stress (Thermal stress): 99.3% | XRPD of solid after thermal stress (Thermal stress): consistent with the pattern of the initial KX2-391.MSA, Form A
